One compound from ChEMBL document CHEMBL2412967, “A FRET-based assay for the discovery of West Nile Virus NS2B-NS3 protease inhibitors” (Bioorg Med Chem Lett, 2013) can be followed below.

Structures are written as SMILES. Peptide text beside a SMILES is read from it.

In test [1] the test system is West Nile virus. Put plainly: Ratio of kcat to Km for West Nile Virus NS2B-NS3 protease expressed in Escherichia coli BL21 (DE3) after 1 hr by FRET assay.
Test [2] deals with West Nile virus. Put plainly: Activity at West Nile Virus NS2B-NS3 protease expressed in Escherichia coli BL21 (DE3) after 1 hr by colorimetric assay.
Test [3] has as its system West Nile virus. Put plainly: Activity at West Nile Virus NS2B-NS3 protease expressed in Escherichia coli BL21 (DE3) after 1 hr by FRET assay.
The subject of test [4] is West Nile virus. Put plainly: Ratio of kcat to Km for West Nile Virus NS2B-NS3 protease expressed in Escherichia coli BL21 (DE3) after 1 hr by colorimetric assay.

In general, kcat/Km refers to the turnover number divided by the Michaelis constant. What is called Km is the concentration of substrate that gives half-maximal velocity. Broadly, the kcat is the maximal rate divided by the concentration of active sites. For `COc1ccc2c(CC(=O)N[C@@H](CCCCN)C(=O)N[C@@H](CCCCN)C(=O)N[C@@H](CCCNC(=N)N)C(=O)NCC(=O)NCC(Nc3ccc([N+](=O)[O-])cc3[N+](=O)[O-])C(=O)N[C@@H](C)C(=O)N[C@@H](CCCCN)C(N)=O)cc(=O)oc2c1` (stereo partly specified) (HELM PEPTIDE1{[COc1ccc2c(CC(=O)[*:2])cc(=O)oc2c1].K.K.R.G.[C[C@H](NC(=O)C(CN[*:1])Nc1ccc([N+](=O)[O-])cc1[N+](=O)[O-])C(=O)N[C@@H](CCCCN)C(N)=O]}$$$$V2.0), the values for the catalytic efficiency (kcat/Km) in test [1] and in test [4] were 21400 M⁻¹ s⁻¹ and 3760 M⁻¹ s⁻¹, respectively. Further, the Michaelis-Menten constant (Km) in test [2] came to 69.9 µM; in test [3], 3.35 µM. Besides, the kcat in test [2] came out at 0.263 s⁻¹; in test [3] it was 0.0717 s⁻¹.
